Data taken from patent publication US20240115574A1, “INHIBITION OF nSMase FOR THE TREATMENT OF HUMAN IMMUNODEFICIENCY VIRUS INFECTION” (The Johns Hopkins University, priority 2018, published 2024).
Like-named read-outs stand apart in the source and are kept apart here.

What was measured:
nSMase2 = nSMase2 (Homo sapiens (Human), UniProt Q9NY59); experiment: nSMase2 inhibition (Tables 1A, 1B); assay type: biochemical
HIV in U1 cells = experiment: HIV replication (p24) in TNF-α-stimulated U1 cells; assay type: cell-based; conditions: TNF-α 500 ng/mL, 0.1 μM-10 μM, 12 h, 24 h, 48 h
Procedure: (§1) Quantification of HIV replication (p24 levels) in medium (top) and cell viability (bottom) of H9 cells (FIG. 4A), U1 cells (FIG. 4B), and human primary CD4+ cells (FIG. 4C) treated with nSMase2 inhibitor, MS882 (31). […] HIV replication and cell viability were measured at 12 h, 24 h, and 48 h after treatment of MS882 (31). Data are mean±S.D of n=3 per independent experiments/condition. *=p<0.05; **=p<0.01; ***=p<0.001 compared to uninfected control (H9 cells, primary human CD4+ cells), or non-TNFα-induced control (U1 cells). #=p<0.05; ##=p<0.01; ###=p<0.001 compared to HIV-infected or TNF-α-induced cells. One-Way ANOVA with Tukey post-hoc comparisons;

[1] = test system: HIV-1 Tat-regulated firefly luciferase reporter in TZM/Bl cells; conditions: dose response
ceramides = experiment: Plasma ceramides in HIV-infected humanized mice; assay type: in vivo; conditions: 10 mg/Kg for 6 weeks
Procedure: Quantifications of multiple ceramides in plasma from uninfected humanized mice, HIV-infected humanized mice administered MS882 (31) (10 mg/Kg) or vehicle for 6 weeks. Data are mean±S.D of n=4-6 per group. *=p<0.05; **=p<0.01; ***=p<0.001 compared to uninfected humanized mice #=p<0.05; ##=p<0.01 compared to HIV-infected mice administered vehicle. One-Way ANOVA with Tukey post-hoc comparisons; Experimental drugs were delivered intraperitoneally at a dose of 10 mg/kg once daily beginning 5 weeks after HIV infection for a duration of 6 weeks. Drugs were reconstituted in 5% DMSO, 5% Tween-80 and 90% saline. Control mice injected with vehicle consisting of 5% DMSO, 5% Tween-80 in saline.

[2] = test system: HIV-MN in primary human CD4+ cells; experiment: HIV replication (p24) in human primary CD4+ cells; assay type: cell-based; conditions: HIV-MN 200 ng/mL, 0.1 μM-10 μM, 12 h, 24 h, 48 h
Procedure: as §1

H9 cells and U1 cells = experiment: Electron microscopy of HIV-infected H9 cells and TNF-α-stimulated U1 cells; assay type: cell-based; conditions: 10 μM for 6 h
Procedure: Representative electron microscope images of H9 cells (FIG. 6A) and U1 cells (FIG. 6B) treated with MS882 (31) (10 μM) for 6 h following HIV infection (H9 cells) or TNF-α stimulation (U1 cells). […] Scale bar, 1 μm;

HIV Rf in H9 cells = experiment: HIV replication in HIV-infected H9 cells, P24 ELISA of culture supernatants; assay type: cell-based; conditions: H9 cells infected with HIV, dose response
Procedure: Controls included no-treatment and vehicle. Cell viability and P24 were measured every 24 h for 4 days.

HIV1-Ada = experiment: HIV-infected humanized mice (hu-NSG), viral load and cell populations; assay type: in vivo
Procedure: Humanization of NSG mice was determined 20 weeks following transplantation by flow cytometry (Miltenyl Biotec) using human specific antibodies directed against hCD45-APC (Leukocytes; Thermo Fisher), hCD3-PE (T cells; Biolegend), hCD14-PE/Cy7 (Macrophage; Biolegend), hCD19-BV421 (B cells; Biolegend). Percent humanization was calculated as a ratio for each of the human antibodies to a mouse specific antibody directed against mCD45-FITC (eBioscience). Mice>5% humanization (in each cell category) were included for experiments.
Reaction included a non-template control, non-enzyme control and sample was analyzed on an Applied Biosystem 7300 Real-Time PCR system (Life Technology). […] The dissociation stage was 95° C. for 15 sec, 60° C. for 1 min and 95° C. for 15 sec.
Drugs were reconstituted in 5% DMSO, 5% Tween-80 and 90% saline. Control mice injected with vehicle consisting of 5% DMSO, 5% Tween-80 in saline.

[3] = nSMase2 inhibitors of formula (I), Table 1A, read-out: IC50
[4] = nSMase2, compounds of formula (II), Table 1B, read-out: Activity* (IC50 category)
[5] = daily administration for 6 weeks

nSMase2, sequence (Q9NY59 whole entry, species assumed): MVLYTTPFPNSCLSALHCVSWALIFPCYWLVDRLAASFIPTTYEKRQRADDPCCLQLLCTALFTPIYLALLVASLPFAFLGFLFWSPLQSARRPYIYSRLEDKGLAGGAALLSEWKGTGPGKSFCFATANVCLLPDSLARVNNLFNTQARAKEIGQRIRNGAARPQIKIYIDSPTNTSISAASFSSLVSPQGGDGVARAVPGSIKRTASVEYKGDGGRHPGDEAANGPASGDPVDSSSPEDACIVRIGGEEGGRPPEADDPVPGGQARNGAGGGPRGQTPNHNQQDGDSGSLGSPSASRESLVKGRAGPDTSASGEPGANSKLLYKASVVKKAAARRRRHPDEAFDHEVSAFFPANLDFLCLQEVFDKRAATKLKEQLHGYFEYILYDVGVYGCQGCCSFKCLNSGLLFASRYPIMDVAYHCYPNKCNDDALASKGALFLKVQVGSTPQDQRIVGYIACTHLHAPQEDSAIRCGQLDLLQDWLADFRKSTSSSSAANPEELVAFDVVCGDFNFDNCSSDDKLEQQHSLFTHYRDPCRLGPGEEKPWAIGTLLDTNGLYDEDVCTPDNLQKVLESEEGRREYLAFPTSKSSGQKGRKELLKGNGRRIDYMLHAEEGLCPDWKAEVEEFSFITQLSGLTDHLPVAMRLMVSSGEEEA

| IC50 (nSMase2; [3]) [µM] | IC50 (nSMase2; [4]) [µM] | Structure (SMILES) | other results |
| --- | --- | --- | --- |
| > 1 |  | CC(=O)N[C@@H]1CCN(c2cc(C)nn3c(C)c(C)nc23)C1 [48-PROV] |  |
| > 100 |  | COc1cccc(-c2c(C)nc3c(N4CC[C@@H](NC(C)=O)C4)cc(Cl)nn23)c1 [14-PROV] |  |
|  | > 100 | COc1ccc(-c2csc3c(N4CC[C@@H](NC(C)=O)C4)nc(C)nc23)cc1OC [30-PROV] |  |
| > 100 |  | CC(=O)N[C@@H]1CCN(c2cc(Cl)nn3cc(C)nc23)C1 [9-PROV] |  |
|  | > 100 | COc1ccc(-c2csc3c(N4CC[C@@H](NC(C)=O)C4)ncnc23)cc1OC [27-PROV] |  |
|  | > 100 | COc1ccc(-c2c(C)sc3c(N4CC[C@@H](NC(C)=O)C4)ncnc23)cc1OC [28-PROV] |  |
|  | > 100 | COc1ccc(-c2scc3c(N4CC[C@@H](NC(C)=O)C4)nc(Cl)nc23)cc1OC [26-PROV] |  |
| ≤ 1 |  | CC(=O)N[C@@H]1CCN(c2cc(C)nn3c(-c4ccc(O)cc4)c(C)nc23)C1 [47-PROV] |  |
| > 10 |  | CC(=O)N[C@@H]1CCN(c2ccnn3cc(C)nc23)C1 [15-PROV] |  |
| > 10 |  | CC(=O)N[C@@H]1CCN(c2cc(C)nn3c(I)c(C)nc23)C1 [23-PROV] |  |
| ≤ 1 |  | CC(=O)N[C@@H]1CCN(c2cc(C)nn3c(-c4ccc5c(c4)OCO5)c(C)nc23)C1 [40-PROV] |  |
|  | > 100 | COc1ccc(-c2c(C)sc3c(N4CC[C@@H](NC(C)=O)C4)nc(C)nc23)cc1OC [29a-PROV] |  |
|  | > 100 | COc1ccc(-c2c(C)sc3c(N4CC[C@@H](NC(C)=O)C4)nc(Cl)nc23)cc1OC [25-PROV] |  |
| > 1 |  | CC(=O)Nc1cccc(-c2c(C)nc3c(N4CC[C@@H](NC(C)=O)C4)cc(C)nn23)c1 [22-PROV] |  |
|  | > 100 | COc1ccc(-c2scc3c(N4CC[C@@H](NC(C)=O)C4)nc(C)nc23)cc1OC [29b-PROV] |  |
| > 1 |  | COc1cc(N2CC[C@@H](NC(C)=O)C2)c2nc(C)c(-c3ccc(OC)c(OC)c3)n2n1 [38-PROV] |  |
| > 100 |  | CC(=O)N[C@@H]1CCN(c2cc(Cl)nn3c(-c4ccc(F)cc4)c(C)nc23)C1 [18-PROV] |  |
| > 1 |  | COc1cccc(-c2c(C)nc3c(N4CC[C@@H](NC(C)=O)C4)cc(C)nn23)c1 [20-PROV] |  |
| > 1 |  | CC(=O)N[C@@H]1CCN(c2cc(C)nn3c(-c4cccc(S(C)(=O)=O)c4)c(C)nc23)C1 [42-PROV] |  |
|  |  | COc1ccc(-c2c(C)nc3c(N4CC[C@@H](NC(=O)C5CCCCC5)C4)cc(C)nn23)cc1 [Entry 31] | HIV replication (p24 levels in medium) (HIV in U1 cells): suppressed HIV-replication; luciferase activity in TZM/B1 cells [1]: reduced luciferase activity in TZM/B1 cells at the highest doses tested; multiple ceramides in plasma (ceramides): decreased elevations of multiple ceramides; HIV replication (p24 levels in medium) [2]: suppressed HIV-replication; endolysosomal morphology (electron microscopy) (H9 cells and U1 cells): induced enlarged endolysosomal compartments engorged with EM-dense debris; HIV replication (P24 ELISA of culture supernatants) (HIV Rf in H9 cells; listed as MS822 (31)): dose-dependently reduced HIV replication; HIV replication (P24 ELISA of culture supernatants) (HIV Rf in H9 cells; listed as MS882 (31)): suppressed HIV-replication; populations of human CD14+ macrophages (HIV1-Ada; 10 mg/kg daily I.P. for 6 weeks): selectively decreased populations of CD14+ macrophages; HIV RNAs in tissues (spleen, lung, liver, brain), qRT-PCR for HIV1-p24 (HIV1-Ada; [5]): decreased; HIV+ (p24+) macrophages (hCD14+) in spleen, lung, liver, brain (HIV1-Ada; [5]): decreased; plasma HIV viral load (HIV1-Ada; daily intraperitoneal administration, HIV-infected humanized mice): reduced plasma HIV viral load; mice with plasma HIV viral load reduced to below detectable levels (HIV1-Ada; daily intraperitoneal administration, individual mice): 3 out of 5 |
| > 100 |  | CC(=O)Nc1cccc(-c2c(C)nc3c(N4CC[C@@H](NC(C)=O)C4)cc(Cl)nn23)c1 [19-PROV] |  |
|  | > 100 | COc1ccc(-c2csc3c(N4CC[C@@H](NC(C)=O)C4)nc(Cl)nc23)cc1OC [24-PROV] |  |
| > 100 |  | COc1ccc(-c2c(C)nc3c(N4CC[C@@H](NC(C)=O)C4)cc(Cl)nn23)cc1 [11-PROV] |  |
